Laboratory results taken from patent US8546401B2, “5,6-disubstituted oxindole-derivatives and use thereof for treating vasopressin-dependent diseases” (AbbVie Deutschland GmbH & Co. KG, priority 2007, dated 2013).

Columns and labels:
[1] = target: T1, human vasopressin V1b receptor (Homo sapiens, UniProt P47901); test: Vasopressin V1b receptor binding assay; details: CHO-K1 membranes, 3H-AVP displacement
T1 construct: expressed in transfected cells; host or cells: CHO-K1 (cell line hV1b_3H2_CHO), membrane preparation
T1 sequence (P47901 1-424): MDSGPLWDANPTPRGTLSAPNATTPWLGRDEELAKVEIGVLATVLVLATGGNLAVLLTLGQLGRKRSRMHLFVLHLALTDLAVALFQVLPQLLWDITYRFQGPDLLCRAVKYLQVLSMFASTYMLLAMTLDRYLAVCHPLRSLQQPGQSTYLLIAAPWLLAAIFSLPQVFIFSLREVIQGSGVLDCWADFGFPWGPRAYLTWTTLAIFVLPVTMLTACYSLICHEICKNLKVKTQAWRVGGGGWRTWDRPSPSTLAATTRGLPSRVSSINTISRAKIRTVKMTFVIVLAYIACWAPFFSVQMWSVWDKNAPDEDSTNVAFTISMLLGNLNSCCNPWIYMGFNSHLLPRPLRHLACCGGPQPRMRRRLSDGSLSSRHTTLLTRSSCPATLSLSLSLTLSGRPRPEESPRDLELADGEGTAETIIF
Procedure: 1. Vasopressin V1b Receptor Binding Assay:
The test substances were dissolved in a concentration of 10^−2 M in DMSO and further diluted to 5×10^−4 M to 5×10^−3 M. These serial DMSO predilutions were diluted 1:10 with assay buffer. The substance concentration was further diluted 1:5 in the assay mixture (2% DMSO in the mixture).
(§1) CHO-K1 cells with stably expressed human vasopressin V1b receptor (clone 3H2) were harvested and homogenized in 50 mM Tris-HCl and in the presence of protease inhibitors (Roche complete Mini #1836170) using a Polytron homogenizer at intermediate setting for 2×10 seconds, and subsequently centrifuged at 40 000×g for 1 h. The membrane pellet was again homogenized and centrifuged as described and subsequently taken up in 50 mM Tris-HCl, pH 7.4, homogenized and stored in aliquots frozen in liquid nitrogen at −190° C.
(§2) The binding assay was carried out by the method based on that of Tahara et al. (Tahara A et al., Brit. J. Pharmacol. 125, 1463-1470 (1998)).
(§3) The incubation buffer was: 50 mM Tris, 10 mM MgCl2, 0.1% BSA, pH 7.4.
In the assay mixture (250 μl), membranes (50 μg/ml protein in incubation buffer) from CHO-K1 cells with stably expressed human V1b receptors (cell line hV1b—3H2_CHO) were incubated with 1.5 nM ^3H-AVP (8-Arg-vasopressin, PerkinElmer #18479) in incubation buffer (50 mM Tris, 10 mM MgCl2, 0.1% BSA, pH 7.4) (total binding) or additionally with increasing concentrations of test substance (displacement experiment). The nonspecific binding was determined with […] (Bachem #H1780). All determinations were carried out as triplicate determinations. After incubation (60 minutes at room temperature), the free radioligand was filtered off by vacuum filtration (Skatron cell harvester 7000) through Wathman GF/B glass fiber filter mats, and the filters were transferred into scintillation vials. The liquid scintillation measurement took place in a model 2000 or 2200CA Tricarb instrument (Packard). Conversion of the measured cpm into dpm was carried out with the aid of a standard quench series.
(§4) The binding parameters were calculated by nonlinear regression in SAS. The algorithms of the program operate in analogy to the LIGAND analysis program (Munson P J and Rodbard D, Analytical Biochem. 107, 220-239 (1980)). The Kd of ^3H-AVP for the recombinant human V1b receptors is 0.4 nM and was used to determine the Ki.

[2] = target: T2, human vasopressin V1a receptor (Homo sapiens, UniProt P37288); test: Vasopressin V1a receptor binding assay; details: selectivity quotient, human receptors
T2 construct: expressed in transfected cells; host or cells: CHO-K1 (cell line hV1a_5_CHO), membrane preparation
Procedure: 2. Vasopressin V1a Receptor Binding Assay:
The test substances were dissolved in a concentration of 10^−2 M in DMSO. Further dilution of these DMSO solutions took place in incubation buffer (50 mM Tris, 10 mM MgCl2, 0.1% BSA, pH 7.4).
as §1, with “V1a” for “V1b”, “5)” for “3H2)”
as §2, §3
In the assay mixture (250 μl), membranes (20 μg/ml protein in incubation buffer) from CHO-K1 cells with stably expressed human V1a receptors (cell line hV1a—5_CHO) were incubated with 0.04 nM ^125I-AVP (8-Arg-vasopressin, NEX 128) in incubation buffer (50 mM Tris, 10 mM MgCl2, 0.1% BSA, pH 7.4) (total binding) or additionally with increasing concentrations of test substance (displacement experiment). The nonspecific binding was determined with 1 μM AVP (Bachem #H1780). Triplicate determinations were carried out.
After incubation (60 minutes at room temperature), the free radioligand was filtered off by vacuum filtration (Skatron cell harvester 7000) through Wathman GF/B glass fiber filter mats, and the filters were transferred into scintillation vials.
The liquid scintillation measurement took place in a model 2000 or 2200CA Tricarb instrument (Packard). Conversion of the measured cpm into dpm was carried out with the aid of a standard quench series.
as §4, with “^125I-AVP” for “^3H-AVP”, “hV1a” for “human V1b”, “was determined in saturation experiments. A Kd of 1.33” for “is 0.4”, “nM” for “nM and”

human oxytocin receptors = target: T3, human oxytocin receptors (Homo sapiens, UniProt P30559); test: Oxytocin receptor binding assay; details: selectivity quotient
T3 construct: expressed in transfected cells; host or cells: HEK-293, transient expression; lysed and homogenized cells
T3 sequence (P30559 1-389): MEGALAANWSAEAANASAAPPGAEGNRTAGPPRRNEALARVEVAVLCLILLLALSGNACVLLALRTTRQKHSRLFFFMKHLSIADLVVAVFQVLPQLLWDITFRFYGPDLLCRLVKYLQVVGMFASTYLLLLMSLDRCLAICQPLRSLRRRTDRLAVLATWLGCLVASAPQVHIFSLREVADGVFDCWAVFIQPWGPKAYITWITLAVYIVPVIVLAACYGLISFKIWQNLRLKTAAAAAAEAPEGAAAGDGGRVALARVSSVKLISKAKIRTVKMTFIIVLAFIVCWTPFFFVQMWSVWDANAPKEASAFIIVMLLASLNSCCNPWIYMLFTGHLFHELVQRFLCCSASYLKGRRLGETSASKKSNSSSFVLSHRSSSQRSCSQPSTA
Procedure: 4. Oxytocin Receptor Binding Assay
The substances were dissolved in a concentration of 10^−2 M in DMSO and diluted with incubation buffer (50 mM Tris, 10 mM MgCl2, 0.1% BSA, pH 7.4).
Confluent HEK-293 cells with transiently expressing recombinant human oxytocin receptors were centrifuged at 750×g at room temperature for 5 minutes. The residue was taken up in ice-cold lysis buffer (50 mM Tris-HCl, 10% glycerol, pH 7.4 and Roche complete protease inhibitor) and subjected to an osmotic shock at 4° C. for 20 minutes. The lyzed cells were then centrifuged at 750×g at 4° C. for 20 minutes, the residue was taken up in incubation buffer, and aliquots of 10^7 cells/ml were prepared. The aliquots were frozen at −80° C. until used.
On the day of the experiment, the cells were thawed, diluted with incubation buffer and homogenized using a Multipette Combitip (Eppendorf, Hamburg). The reaction mixture of 0.250 ml was composed of 2 to 5×10^4 recombinant cells, 3-4 nM ^3H-oxytocin (PerkinElmer, NET 858) in the presence of test substance (inhibition plot) or only incubation buffer (total binding). The nonspecific binding was determined with 10^−6 M oxytocin (Bachem AG, H2510). Triplicate determinations were set up. Bound and free radioligand were separated by filtration under vacuum with Whatman GF/B glass fiber filters with the aid of a Skatron cell harvester 7000. The bound radioactivity was determined by liquid scintillation measurement in a Tricarb Beta counter, model 2000 or 2200CA (Packard).
The binding parameters were calculated by nonlinear regression analysis (SAS) in analogy to the LIGAND program of Munson and Rodbard (Analytical Biochem 1980; 107: 220-239). The Kd of ^3H-oxytocin for the recombinant hOT receptors is 7.6 nM and was used to determine the Ki.

T2 sequence (P37288 whole entry): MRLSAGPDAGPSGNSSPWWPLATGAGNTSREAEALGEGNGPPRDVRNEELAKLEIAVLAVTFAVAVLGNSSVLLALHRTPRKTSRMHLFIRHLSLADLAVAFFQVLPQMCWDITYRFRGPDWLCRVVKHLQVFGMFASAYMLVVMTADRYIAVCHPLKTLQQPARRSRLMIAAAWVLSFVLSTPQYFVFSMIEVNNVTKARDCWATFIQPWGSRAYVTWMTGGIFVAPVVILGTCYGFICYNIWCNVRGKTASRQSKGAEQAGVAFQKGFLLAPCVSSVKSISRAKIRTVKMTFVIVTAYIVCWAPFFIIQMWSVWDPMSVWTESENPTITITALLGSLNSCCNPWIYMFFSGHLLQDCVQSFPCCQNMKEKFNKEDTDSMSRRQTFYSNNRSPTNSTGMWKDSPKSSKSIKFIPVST

Row | Compound | Ki [1] [nM] | Ki(h − V1a)/Ki(h − V1b)* [2] | Ki(h − OT)/Ki(h − V1b)* (human oxytocin receptors)
1 | CCOc1ncccc1C1(NC(=O)N2CCC(N3CCN(CC)CC3)CC2)C(=O)N(S(=O)(=O)c2ccc(OC)cc2OC)c2cc(F)c(C#N)cc21 (stereo not drawn) [Example 4, 4-(4-Ethylpiperazin-1-yl)piperidine-1-[5-cyano-1-(2,4-dimethoxyphenylsulfonyl)-3-(2-ethoxypyridin-3-yl)-6-fluoro-2-oxo-2,3-dihydro-1H-indol-3-yl]carboxamide] | < 1 | ++ (25-75) | +++ (>75)
2 | CCOc1ncccc1C1(NC(=O)N2CCN(C3CCN(C)CC3)CC2)C(=O)N(S(=O)(=O)c2ccc(OC)cc2)c2cc(F)c(C#N)cc21 (stereo not drawn) [Example 5, 4-(1-Methylpiperidin-4-yl)piperazine-1-[5-cyano-3-(2-ethoxypyridin-3-yl)-6-fluoro-1-(4-methoxyphenylsulfonyl)-2-oxo-2,3-dihydro-1H-indol-3-yl]carboxamide] | 1 to 10 | +++ (>75) | +++ (>75)
3 | CCOc1ncccc1C1(NC(=O)N2CCN(C3CCN(CC)CC3)CC2)C(=O)N(S(=O)(=O)c2ccc(OC)cc2)c2cc(F)c(C#N)cc21 (stereo not drawn) [Example 6, 4-(1-Ethylpiperidin-4-yl)piperazine-1-[5-cyano-3-(2-ethoxypyridin-3-yl)-6-fluoro-1-(4-methoxyphenylsulfonyl)-2-oxo-2,3-dihydro-1H-indol-3-yl]carboxamide] | 1 to 10 | +++ (>75) | +++ (>75)
4 | CCOc1ncccc1C1(NC(=O)N2CCC(N3CCN(C)CC3)CC2)C(=O)N(S(=O)(=O)c2ccc(OC)cc2)c2cc(F)c(C#N)cc21 (stereo not drawn) [Example 7, 4-(4-Methylpiperazin-1-yl)piperidine-1-[5-cyano-3-(2-ethoxypyridin-3-yl)-6-fluoro-1-(4-methoxyphenylsulfonyl)-2-oxo-2,3-dihydro-1H-indol-3-yl]carboxamide] | 1 to 10 | + (10-<25) | +++ (>75)
5 | CCOc1ncccc1C1(NC(=O)N2CCC(N3CCN(CC)CC3)CC2)C(=O)N(S(=O)(=O)c2ccc(OC)cc2)c2cc(F)c(C#N)cc21 (stereo not drawn) [Example 8, 4-(4-Ethylpiperazin-1-yl)piperidine-1-[5-cyano-3-(2-ethoxypyridin-3-yl)-6-fluoro-1-(4-methoxyphenylsulfonyl)-2-oxo-2,3-dihydro-1H-indol-3-yl]carboxamide] | 1 to 10 | ++ (25-75) | +++ (>75)

Results, then the molecule that gave them:

Row | Ki [1] [nM] | Ki(h − V1a)/Ki(h − V1b)* [2] | Ki(h − OT)/Ki(h − V1b)* (human oxytocin receptors) | Compound
6 | < 1 | +++ (>75) | +++ (>75) | CCOc1ncccc1C1(NC(=O)N2CCN(C3CCN(C)CC3)CC2)C(=O)N(S(=O)(=O)c2ccc(OC)cc2OC)c2cc(F)c(C#N)cc21 (stereo not drawn) [Example 1, 4-(1-Methylpiperidin-4-yl)piperazin-1-[5-cyano-1-(2,4-dimethoxyphenylsulfonyl)-3-(2-ethoxypyridin-3-yl)-6-fluoro-2-oxo-2,3-dihydro-1H-indol-3-yl]carboxamide]
7 | < 1 | +++ (>75) | +++ (>75) | CCOc1ncccc1C1(NC(=O)N2CCN(C3CCN(CC)CC3)CC2)C(=O)N(S(=O)(=O)c2ccc(OC)cc2OC)c2cc(F)c(C#N)cc21 (stereo not drawn) [Example 2, 4-(1-Ethylpiperidin-4-yl)piperazine-1-[5-cyano-1-(2,4-dimethoxyphenylsulfonyl)-3-(2-ethoxypyridin-3-yl)-6-fluoro-2-oxo-2,3-dihydro-1H-indol-3-yl]carboxamide]
8 | < 1 | ++ (25-75) | +++ (>75) | CCOc1ncccc1C1(NC(=O)N2CCC(N3CCN(C)CC3)CC2)C(=O)N(S(=O)(=O)c2ccc(OC)cc2OC)c2cc(F)c(C#N)cc21 (stereo not drawn) [Example 3, 4-(4-Methylpiperazin-1-yl)piperidine-1-[5-cyano-1-(2,4-dimethoxyphenylsulfonyl)-3-(2-ethoxypyridin-3-yl)-6-fluoro-2-oxo-2,3-dihydro-1H-indol-3-yl]carboxamide]
